In the supplement of paper PMC10307832:

Key:
Assay in all cases: relative viability (nuclei count vs DMSO), 5 days (fraction); higher = more cells survive
[1] = compound: C1CN(CCC1C(C2=CC3=C(C=C2)OCO3)(C4=CC5=C(C=C4)OCO5)O)C(=O)OC6=CC=C(C=C6)[N+](=O)[O-] [JZL-184] + C[C@@H](Oc1cc(-c2cnn(C3CCNCC3)c2)cnc1N)c1c(Cl)ccc(F)c1Cl [Crizotinib] (partner 1 µM)
Procedure, shortened: (§1)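 One day after seeding in 1536-well plates, lung cancer cell lines were dosed by pin tool. Dosing was either single-drug or a fixed anchor-drug dose plus five library-drug doses (not always all listed) in √10 steps. After 5 days, nuclei were stained in one fix-and-stain step and counted on 4× images, and relative viability is the nuclei count of treated wells over that of vehicle wells, given as the median of duplicate plates.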

[2] = compound: C1CN(CCC1C(C2=CC3=C(C=C2)OCO3)(C4=CC5=C(C=C4)OCO5)O)C(=O)OC6=CC=C(C=C6)[N+](=O)[O-] [JZL-184] + CS(=O)(=O)N1CCN(Cc2cc3nc(-c4cccc5[nH]ncc45)nc(N4CCOCC4)c3s2)CC1 [Pictilisib] (partner 1 µM)
Procedure, shortened: as §1

[3] = compound: C1CN(CCC1C(C2=CC3=C(C=C2)OCO3)(C4=CC5=C(C=C4)OCO5)O)C(=O)OC6=CC=C(C=C6)[N+](=O)[O-] [JZL-184] + Cc1nc(NC(=O)N2CCC[C@H]2C(N)=O)sc1-c1ccnc(C(C)(C)C(F)(F)F)c1 [Alpelisib] (partner 2 µM)
Procedure, shortened: as §1

[4] = compound: C1CN(CCC1C(C2=CC3=C(C=C2)OCO3)(C4=CC5=C(C=C4)OCO5)O)C(=O)OC6=CC=C(C=C6)[N+](=O)[O-] [JZL-184] + O=C(c1cc(Cc2n[nH]c(=O)c3ccccc23)ccc1F)N1CCN(C(=O)C2CC2)CC1 [Olaparib] (partner 8 µM)
Procedure, shortened: as §1

[5] = compound: C1CN(CCC1C(C2=CC3=C(C=C2)OCO3)(C4=CC5=C(C=C4)OCO5)O)C(=O)OC6=CC=C(C=C6)[N+](=O)[O-] [JZL-184] + C[C@]1(O)C[C@@H](c2nc(-c3ccc4ccc(-c5ccccc5)nc4c3)c3c(N)nccn32)C1 [Linsitinib] (partner 1 µM)
Procedure, shortened: as §1

[6] = compound: C1CN(CCC1C(C2=CC3=C(C=C2)OCO3)(C4=CC5=C(C=C4)OCO5)O)C(=O)OC6=CC=C(C=C6)[N+](=O)[O-] [JZL-184] + CS(=O)(=O)CCNCc1ccc(-c2ccc3ncnc(Nc4ccc(OCc5cccc(F)c5)c(Cl)c4)c3c2)o1 [Lapatinib] (partner 2 µM)
Procedure, shortened: as §1

[7] = compound: C1CN(CCC1C(C2=CC3=C(C=C2)OCO3)(C4=CC5=C(C=C4)OCO5)O)C(=O)OC6=CC=C(C=C6)[N+](=O)[O-] [JZL-184] + CC(C)C[C@H](NC(=O)[C@H](Cc1ccccc1)NC(=O)c1cnccn1)B(O)O [Bortezomib] (partner 0.002 µM)
Procedure, shortened: as §1

[8] = compound: C1CN(CCC1C(C2=CC3=C(C=C2)OCO3)(C4=CC5=C(C=C4)OCO5)O)C(=O)OC6=CC=C(C=C6)[N+](=O)[O-] [JZL-184] + COc1cc2c(Oc3ccc(NC(=O)C4(C(=O)Nc5ccc(F)cc5)CC4)cc3F)ccnc2cc1OCCCN1CCOCC1 [Foretinib] (partner 0.25 µM)
Procedure, shortened: as §1

[9] = compound: C1CN(CCC1C(C2=CC3=C(C=C2)OCO3)(C4=CC5=C(C=C4)OCO5)O)C(=O)OC6=CC=C(C=C6)[N+](=O)[O-] [JZL-184] + CC1(C)CCC(c2ccc(Cl)cc2)=C(CN2CCN(c3ccc(C(=O)NS(=O)(=O)c4ccc(N[C@H](CCN5CCOCC5)CSc5ccccc5)c(S(=O)(=O)C(F)(F)F)c4)cc3)CC2)C1 [Navitoclax] (partner 0.5 µM)
Procedure, shortened: as §1

[10] = compound: C1CN(CCC1C(C2=CC3=C(C=C2)OCO3)(C4=CC5=C(C=C4)OCO5)O)C(=O)OC6=CC=C(C=C6)[N+](=O)[O-] [JZL-184]
Procedure, shortened: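 Five library-drug doses, separated by factors of √10, were pinned into 1536-well plates holding lung cancer cell lines after an overnight stay at 37 °C. Cells were fixed, permeabilised and Hoechst-stained in one step after 5 days without medium change, then imaged at 4×. Viability compares treated-well with vehicle-well nuclei, counted in MetaXpress, as a median across plates. Passing plates had control CV below 25% and at least one doubling.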

[11] = compound: C1CN(CCC1C(C2=CC3=C(C=C2)OCO3)(C4=CC5=C(C=C4)OCO5)O)C(=O)OC6=CC=C(C=C6)[N+](=O)[O-] [JZL-184] + CCNC(=O)c1noc(-c2cc(C(C)C)c(O)cc2O)c1-c1ccc(CN2CCOCC2)cc1 [Luminespib] (partner 0.01 µM)
Procedure, shortened: as §1

[12] = compound: C1CN(CCC1C(C2=CC3=C(C=C2)OCO3)(C4=CC5=C(C=C4)OCO5)O)C(=O)OC6=CC=C(C=C6)[N+](=O)[O-] [JZL-184] + N=C(N)NC(=N)NCCc1ccccc1 [Phenformin] (partner 250 µM)
Procedure, shortened: as §1

[13] = compound: C1CN(CCC1C(C2=CC3=C(C=C2)OCO3)(C4=CC5=C(C=C4)OCO5)O)C(=O)OC6=CC=C(C=C6)[N+](=O)[O-] [JZL-184] + Nc1nc2[nH]cc(CCc3ccc(C(=O)N[C@@H](CCC(=O)O)C(=O)O)cc3)c2c(=O)[nH]1 [Pemetrexed] (partner 0.2 µM)
Procedure, shortened: as §1

[14] = compound: C1CN(CCC1C(C2=CC3=C(C=C2)OCO3)(C4=CC5=C(C=C4)OCO5)O)C(=O)OC6=CC=C(C=C6)[N+](=O)[O-] [JZL-184] + COc1cccc2cc(-c3nc([C@H]4CC[C@H](C(=O)O)CC4)n4ncnc(N)c34)[nH]c12 [OSI-027] (partner 0.5 µM)
Procedure, shortened: as §1

[15] = compound: C1CN(CCC1C(C2=CC3=C(C=C2)OCO3)(C4=CC5=C(C=C4)OCO5)O)C(=O)OC6=CC=C(C=C6)[N+](=O)[O-] [JZL-184] + Cc1nc(Nc2ncc(C(=O)Nc3c(C)cccc3Cl)s2)cc(N2CCN(CCO)CC2)n1 [Dasatinib] (partner 0.075 µM)
Procedure, shortened: as §1

[16] = compound: C1CN(CCC1C(C2=CC3=C(C=C2)OCO3)(C4=CC5=C(C=C4)OCO5)O)C(=O)OC6=CC=C(C=C6)[N+](=O)[O-] [JZL-184] + Cc1cc(Nc2cc(N3CCN(C)CC3)nc(Sc3ccc(NC(=O)C4CC4)cc3)n2)n[nH]1 [Tozasertib] (partner 0.1 µM)
Procedure, shortened: as §1

NCI-H1299
relative viability ([1]; first compound 0.04 µM): 0.982
relative viability ([1]; first compound 0.4 µM): 0.944
relative viability ([1]; first compound 1.265 µM): 0.915
relative viability ([1]; first compound 4 µM): 0.884
relative viability ([2]; first compound 0.04 µM): 0.922
relative viability ([2]; first compound 0.4 µM): 0.82
relative viability ([2]; first compound 1.265 µM): 0.779
relative viability ([2]; first compound 4 µM): 0.655
relative viability ([3]; first compound 0.04 µM): 1.14
relative viability ([3]; first compound 0.4 µM): 1.01
relative viability ([3]; first compound 1.265 µM): 1.08
relative viability ([3]; first compound 4 µM): 1.04
relative viability ([4]; first compound 0.04 µM): 1.01
relative viability ([4]; first compound 0.4 µM): 0.937
relative viability ([4]; first compound 1.265 µM): 0.936
relative viability ([4]; first compound 4 µM): 0.911
relative viability ([5]; first compound 0.04 µM): 1.16
relative viability ([5]; first compound 0.4 µM): 1.01
relative viability ([5]; first compound 1.265 µM): 0.95
relative viability ([5]; first compound 4 µM): 0.974
relative viability ([6]; first compound 0.04 µM): 0.954
relative viability ([6]; first compound 0.4 µM): 0.924
relative viability ([6]; first compound 1.265 µM): 0.969
relative viability ([6]; first compound 4 µM): 0.912
relative viability ([7]; first compound 0.04 µM): 1.04
relative viability ([7]; first compound 0.4 µM): 0.997
relative viability ([7]; first compound 1.265 µM): 1.04
relative viability ([7]; first compound 4 µM): 0.979
relative viability ([8]; first compound 0.04 µM): 1.11
relative viability ([8]; first compound 0.4 µM): 1.06
relative viability ([8]; first compound 1.265 µM): 1.14
relative viability ([8]; first compound 4 µM): 1.04
relative viability ([9]; first compound 0.04 µM): 1.06
relative viability ([9]; first compound 0.4 µM): 1.05
relative viability ([9]; first compound 1.265 µM): 1.06
relative viability ([9]; first compound 4 µM): 1.05
relative viability ([10]; 0.04 µM): 1.06
relative viability ([10]; 0.4 µM): 1
relative viability ([10]; 1.265 µM): 1.05
relative viability ([10]; 4 µM): 0.977

NCI-H1563
relative viability ([1]; first compound 0.04 µM): 0.931
relative viability ([1]; first compound 0.4 µM): 0.903
relative viability ([1]; first compound 1.265 µM): 0.868
relative viability ([1]; first compound 4 µM): 0.88
relative viability ([2]; first compound 0.04 µM): 0.673
relative viability ([2]; first compound 0.4 µM): 0.676
relative viability ([2]; first compound 1.265 µM): 0.669
relative viability ([2]; first compound 4 µM): 0.675
relative viability ([3]; first compound 0.04 µM): 0.934
relative viability ([3]; first compound 0.4 µM): 0.964
relative viability ([3]; first compound 1.265 µM): 0.899
relative viability ([3]; first compound 4 µM): 0.914
relative viability ([11]; first compound 0.04 µM): 0.513
relative viability ([11]; first compound 0.4 µM): 0.571
relative viability ([11]; first compound 1.265 µM): 0.535
relative viability ([11]; first compound 4 µM): 0.511
relative viability ([5]; first compound 0.04 µM): 1.24
relative viability ([5]; first compound 0.4 µM): 1.31
relative viability ([5]; first compound 1.265 µM): 1.21
relative viability ([5]; first compound 4 µM): 1.09
relative viability ([6]; first compound 0.04 µM): 0.951
relative viability ([6]; first compound 0.4 µM): 0.923
relative viability ([6]; first compound 1.265 µM): 0.972
relative viability ([6]; first compound 4 µM): 0.868
relative viability ([12]; first compound 0.04 µM): 0.694
relative viability ([12]; first compound 0.4 µM): 0.636
relative viability ([12]; first compound 1.265 µM): 0.681
relative viability ([12]; first compound 4 µM): 0.64
relative viability ([13]; first compound 0.04 µM): 0.851
relative viability ([13]; first compound 0.4 µM): 0.776
relative viability ([13]; first compound 1.265 µM): 0.821
relative viability ([13]; first compound 4 µM): 0.739
relative viability ([7]; first compound 0.04 µM): 0.79
relative viability ([7]; first compound 0.4 µM): 0.797
relative viability ([7]; first compound 1.265 µM): 0.86
relative viability ([7]; first compound 4 µM): 0.933
relative viability ([14]; first compound 0.04 µM): 0.794
relative viability ([14]; first compound 0.4 µM): 0.729
relative viability ([14]; first compound 1.265 µM): 0.776
relative viability ([14]; first compound 4 µM): 0.7
relative viability ([8]; first compound 0.04 µM): 0.937
relative viability ([8]; first compound 0.4 µM): 0.888
relative viability ([8]; first compound 1.265 µM): 0.897
relative viability ([8]; first compound 4 µM): 0.959
relative viability ([15]; first compound 0.04 µM): 0.515
relative viability ([15]; first compound 0.4 µM): 0.374
relative viability ([15]; first compound 1.265 µM): 0.453
relative viability ([15]; first compound 4 µM): 0.474
relative viability ([10]; 0.04 µM): 0.943
relative viability ([10]; 0.4 µM): 1.05
relative viability ([10]; 1.265 µM): 1.02
relative viability ([10]; 4 µM): 0.934

NCI-H1623
relative viability ([16]; first compound 0.04 µM): 0.453
relative viability ([16]; first compound 0.4 µM): 0.442
relative viability ([16]; first compound 1.265 µM): 0.442
relative viability ([16]; first compound 4 µM): 0.482
relative viability ([11]; first compound 0.04 µM): 0.389
relative viability ([11]; first compound 0.4 µM): 0.411
relative viability ([11]; first compound 1.265 µM): 0.626
relative viability ([11]; first compound 4 µM): 0.585
relative viability ([12]; first compound 0.04 µM): 0.566
relative viability ([12]; first compound 0.4 µM): 0.551
relative viability ([12]; first compound 1.265 µM): 0.595
relative viability ([12]; first compound 4 µM): 0.565
relative viability ([14]; first compound 0.04 µM): 0.463
relative viability ([14]; first compound 0.4 µM): 0.438
relative viability ([14]; first compound 1.265 µM): 0.464
relative viability ([14]; first compound 4 µM): 0.446
relative viability ([8]; first compound 0.04 µM): 0.904
relative viability ([8]; first compound 0.4 µM): 0.818
relative viability ([8]; first compound 1.265 µM): 0.944
relative viability ([8]; first compound 4 µM): 0.807
relative viability ([15]; first compound 0.04 µM): 0.512
relative viability ([15]; first compound 0.4 µM): 0.561
relative viability ([15]; first compound 1.265 µM): 0.573
relative viability ([15]; first compound 4 µM): 0.47
relative viability ([10]; 0.04 µM): 0.941
relative viability ([10]; 0.4 µM): 0.988
relative viability ([10]; 1.265 µM): 1
relative viability ([10]; 4 µM): 0.937
